The results in this text go back to US12281122B1, “PI3K inhibitors” (Cogent Biosciences, Inc., priority 2023, dated 2025).

Assay [1] addresses PI3Kα (Homo sapiens, UniProt P42336). Description: PI3Kα enzyme assay (Transcreener ADP2 TR-FRET Red Assay). It is filed as biochemical. The settings on record: purified recombinant full-length protein; 2 hours pre-incubation with compound; read-out: PI3Kα WT IC50. The procedure, abridged:
(§1)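 Purified recombinant full-length enzymes pre-incubated 2 h at room temperature with compounds (11-point 1:3 dilutions, typically 50,000–0.85 nM), then started with ATP/PI(4,5)P2 diC8 and run 60 min at room temperature in 40 mM HEPES pH 7.5, 20 mM NaCl, 25 mM MgCl2, 0.01% Triton X-100. ADP detected by TR-FRET 665/615 ratio; IC50 from four-parameter fit of percent of control.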

Assay [2] has as its target PI3Kα H1047R (Homo sapiens, UniProt P42336, H1047R). Briefly: PI3Kα H1047R enzyme assay (Transcreener ADP2 TR-FRET Red Assay). The format is biochemical. The settings on record: purified recombinant full-length protein; 2 hours pre-incubation with compound. Put shortly: as §1
For orientation: Time-resolved FRET reads energy transfer from a long-lived donor to a nearby acceptor.

Assay [3] has as its system T47D (PI3Kα-H1047R) cell line. Briefly: HTRF phospho-AKT(S473) cell assay in T47D cells. It is filed as cell-based, human. To be noted: Homo sapiens; T47D (PI3Kα-H1047R) cells, HTRF phospho-AKT(S473), 2 hours compound incubation. The procedure, abridged: (§2)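 T47D (PI3Kα-H1047R; RPMI, 10% FBS, insulin) and SKBR3 (wild-type PI3Kα; McCoy's 5A, 10% FBS) cells treated 2 h at 37 °C with 12-point 1:3 dilutions, top 5 μM and 10 μM respectively, ≤0.5% DMSO. SKBR3 stimulated with 70 ng/ml PDGF-BB for the last 15 min; lysate pAKT(S473) by HTRF, IC50 from curves.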

Assay [4] has as its system SKBR3 (PI3Kα-Wild Type) cell line. Description: HTRF phospho-AKT(S473) cell assay in SKBR3 cells. The format is cell-based, human. The settings on record: Homo sapiens, SK-BR-3; SKBR3 (PI3Kα-Wild Type) cells, HTRF phospho-AKT(S473), 2 hours compound incubation, PDGF-BB stimulated. The procedure, abridged: as §2

Bounds are passed on as bounds.

Sequence of PI3Kα (P42336 whole entry): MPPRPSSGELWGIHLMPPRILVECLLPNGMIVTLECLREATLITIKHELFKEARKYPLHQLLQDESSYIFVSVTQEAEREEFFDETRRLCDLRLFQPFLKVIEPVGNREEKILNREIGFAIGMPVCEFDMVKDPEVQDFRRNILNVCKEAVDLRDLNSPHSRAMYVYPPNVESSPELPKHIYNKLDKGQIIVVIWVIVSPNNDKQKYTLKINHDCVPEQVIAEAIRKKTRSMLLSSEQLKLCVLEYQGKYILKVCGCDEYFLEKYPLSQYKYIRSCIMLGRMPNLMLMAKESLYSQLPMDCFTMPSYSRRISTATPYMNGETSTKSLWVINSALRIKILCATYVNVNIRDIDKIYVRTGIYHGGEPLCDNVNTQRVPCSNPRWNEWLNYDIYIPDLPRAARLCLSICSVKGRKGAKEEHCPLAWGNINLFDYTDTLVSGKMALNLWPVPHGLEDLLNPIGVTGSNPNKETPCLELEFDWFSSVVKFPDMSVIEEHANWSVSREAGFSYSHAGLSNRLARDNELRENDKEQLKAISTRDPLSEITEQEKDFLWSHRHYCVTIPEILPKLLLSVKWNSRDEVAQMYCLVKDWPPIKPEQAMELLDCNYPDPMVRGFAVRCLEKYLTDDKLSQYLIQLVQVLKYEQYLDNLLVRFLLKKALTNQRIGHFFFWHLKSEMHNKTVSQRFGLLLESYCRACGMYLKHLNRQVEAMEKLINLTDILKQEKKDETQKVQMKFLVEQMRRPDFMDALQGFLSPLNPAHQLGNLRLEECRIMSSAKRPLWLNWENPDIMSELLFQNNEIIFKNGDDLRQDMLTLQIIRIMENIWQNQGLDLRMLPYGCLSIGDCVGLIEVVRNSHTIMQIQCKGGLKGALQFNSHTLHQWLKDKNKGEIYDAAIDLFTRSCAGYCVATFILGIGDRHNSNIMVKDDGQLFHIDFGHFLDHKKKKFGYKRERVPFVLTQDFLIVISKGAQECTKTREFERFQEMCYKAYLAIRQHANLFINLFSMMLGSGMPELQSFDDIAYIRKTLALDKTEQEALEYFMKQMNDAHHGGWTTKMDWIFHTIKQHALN
Sequence of PI3Kα (P27986 2-724 partner): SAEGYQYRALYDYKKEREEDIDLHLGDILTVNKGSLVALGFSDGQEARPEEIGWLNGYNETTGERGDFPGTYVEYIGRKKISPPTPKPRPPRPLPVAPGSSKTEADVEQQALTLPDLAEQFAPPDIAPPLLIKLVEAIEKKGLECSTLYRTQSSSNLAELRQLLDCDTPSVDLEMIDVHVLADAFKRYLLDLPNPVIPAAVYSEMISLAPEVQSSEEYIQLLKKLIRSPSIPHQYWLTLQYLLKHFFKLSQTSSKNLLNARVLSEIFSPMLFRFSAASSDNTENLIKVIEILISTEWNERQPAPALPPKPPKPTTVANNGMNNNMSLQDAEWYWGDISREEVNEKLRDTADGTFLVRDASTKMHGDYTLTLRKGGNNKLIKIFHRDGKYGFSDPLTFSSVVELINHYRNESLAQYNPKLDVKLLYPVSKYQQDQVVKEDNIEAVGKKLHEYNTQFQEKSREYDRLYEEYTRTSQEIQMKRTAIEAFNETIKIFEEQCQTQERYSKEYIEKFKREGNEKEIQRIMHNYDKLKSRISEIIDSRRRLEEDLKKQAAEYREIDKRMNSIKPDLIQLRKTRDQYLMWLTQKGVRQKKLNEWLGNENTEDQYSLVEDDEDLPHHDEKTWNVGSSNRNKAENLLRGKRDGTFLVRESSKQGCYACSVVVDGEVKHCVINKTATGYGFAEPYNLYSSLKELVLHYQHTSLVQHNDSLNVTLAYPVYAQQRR
Sequence of PI3Kα H1047R (P42336 whole entry H1047R): as the sequence (P42336 whole entry) above, with H1047R counted along it
Sequence of PI3Kα H1047R (P27986 2-724 partner): as the sequence (P27986 2-724 partner) above

As usually defined, the IC50 is the concentration at which inhibition is half-maximal. As to `Cc1cc([C@@H](C)Nc2ccc(Cl)nc2C(=O)NS(C)(=O)=O)c2nc(-c3cnc(C)nc3)n(C)c(=O)c2c1` [Compound 86, (R)-6-chloro-3-((1-(3,6-dimethyl-2-(2-methylpyrimidin-5-yl)-4-oxo-3,4-dihydroquinazolin-8-yl)ethyl)amino)-N-(methylsulfonyl) picolinamide], the IC50 in assay [1] is no less than 1000 nM; in assay [2] it was no less than 1000 nM; in assay [3], 500 to 1000 nM; in assay [4], 1 to 5 µM.
In the case of `C[C@@H](Nc1ccc(Cl)nc1C(=O)NS(C)(=O)=O)c1cccc2c(=O)n(C)c(N3Cc4cnn(C)c4C3)nc12` [Compound 38, (R)-6-chloro-3-((1-(3-methyl-2-(1-methyl-4,6-dihydropyrrolo[3,4-c]pyrazol-5(1H)-yl)-4-oxo-3,4-dihydroquinazolin-8-yl)ethyl)amino)-N-(methylsulfonyl) picolinamide], the IC50 was no less than 1000 nM in assay [1], 500 to 1000 nM in assay [2], 250 to 500 nM in assay [3] and 1 to 5 µM in assay [4].
For `Cc1cc([C@@H](C)Nc2ccc(Cl)nc2C(=O)NS(C)(=O)=O)c2nc(-c3ccc(C)nc3)n(C)c(=O)c2c1` [Compound 84, (R)-6-chloro-3-((1-(3,6-dimethyl-2-(6-methylpyridin-3-yl)-4-oxo-3,4-dihydroquinazolin-8-yl)ethyl)amino)-N-(methylsulfonyl) picolinamide] the same measures were no less than 1000 nM, no less than 1000 nM, 250 to 500 nM and 1 to 5 µM.
For the molecule `Cc1cc([C@H](C)Nc2cn(C)nc2C(=O)NS(C)(=O)=O)c2nc(N3Cc4ccc(F)cc4C3)n(C)c(=O)c2c1` (single isomer, unassigned) [Compound 107, 4-((1-(2-(5-fluoroisoindolin-2-yl)-3,6-dimethyl-4-oxo-3,4-dihydroquinazolin-8-yl)ethyl)amino)-1-methyl-N-(methylsulfonyl)-1H-pyrazole-3-carboxamide], the IC50 in assay [1] is no less than 1000 nM; in assay [2], no less than 1000 nM; in assay [3] it was 1000 to 5000 nM; in assay [4], no less than 5 µM.
In the case of `Cc1cc([C@@H](C)Nc2ccc(Cl)nc2C(=O)NS(C)(=O)=O)c2nc(NCC3CC(F)(F)C3)n(C)c(=O)c2c1` [Compound 20, (R)-6-chloro-3-((1-(2-(((3,3-difluorocyclobutyl)methyl)amino)-3,6-dimethyl-4-oxo-3,4-dihydroquinazolin-8-yl)ethyl)amino)-N-(methylsulfonyl) picolinamide], the IC50 is no less than 1000 nM in assay [1], no less than 1000 nM in assay [2], 500 to 1000 nM in assay [3] and 1 to 5 µM in assay [4].
Consider `Cc1cc([C@@H](C)Nc2ccc(F)cc2C(=O)NS(C)(=O)=O)c2nc(N3Cc4ccc(F)cc4C3)n(C)c(=O)c2c1` [Compound 63, (R)-5-fluoro-2-((1-(2-(5-fluoro-isoindolin-2-yl)-3,6-dimethyl-4-oxo-3,4-dihydroquinazolin-8-yl)ethyl)amino)-N-(methylsulfonyl) benzamide], for which the IC50 in assay [1] was no less than 1000 nM; in assay [2], no less than 1000 nM; in assay [3], 1000 to 5000 nM; in assay [4], 1 to 5 µM.
On to `Cc1cc([C@@H](C)Nc2ccc(Cl)nc2C(=O)NS(C)(=O)=O)c2nc(N3CCc4ccccc4[C@H]3C)n(C)c(=O)c2c1` (mixture of isomers) [Compound 19, 6-chloro-3-(((R)-1-(3,6-dimethyl-2-((R)-1-methyl-3,4-dihydroisoquinolin-2(1H)-yl)-4-oxo-3,4-dihydroquinazolin-8-yl)ethyl)amino)-N-(methylsulfonyl) picolinamide AND 6-chloro-3-(((R)-1-(3,6-dimethyl-2-((S)-1-methyl-3,4-dihydroisoquinolin-2(1H)-yl)-4-oxo-3,4-dihydroquinazolin-8-yl)ethyl)amino)-N-(methylsulfonyl) picolinamide], for which the IC50 in assay [1] was no less than 1000 nM; in assay [2], no less than 1000 nM; in assay [3], 500 to 1000 nM; in assay [4], no less than 5 µM.
For `CCn1cc2c(n1)CN(c1nc3c([C@@H](C)Nc4ccc(Cl)nc4C(=O)NS(C)(=O)=O)cc(C)cc3c(=O)n1C)C2` [Compound 44, (R)-6-chloro-3-((1-(2-(2-ethyl-2,6-dihydropyrrolo[3,4-c]pyrazol-5(4H)-yl)-3,6-dimethyl-4-oxo-3,4-dihydroquinazolin-8-yl)ethyl)amino)-N-(methylsulfonyl) picolinamide], the IC50 in assay [1] is no less than 1000 nM; in assay [2], 100 to 250 nM; in assay [3], less than 250 nM; in assay [4] it was 1 to 5 µM.
The matching figures for `Cc1cc([C@@H](C)Nc2ccc(Cl)nc2C(=O)NS(C)(=O)=O)c2nc(N3CC4(C3)CC(F)(F)C4)n(C)c(=O)c2c1` [Compound 9, (R)-6-chloro-3-((1-(2-(6,6-difluoro-2-azaspiro[3.3]heptan-2-yl)-3,6-dimethyl-4-oxo-3,4-dihydroquinazolin-8-yl)ethyl)amino)-N-(methylsulfonyl) picolinamide]: no less than 1000 nM, 500 to 1000 nM, 250 to 500 nM and 1 to 5 µM.
For `Cc1cc([C@@H](C)Nc2ccc(Cl)nc2C(=O)NS(C)(=O)=O)c2nc(N3Cc4cnn(C)c4C3)n(C)c(=O)c2c1` [Compound 4, (R)-6-chloro-3-((1-(3,6-dimethyl-2-(1-methyl-4,6-dihydropyrrolo[3,4-c]pyrazol-5(1H)-yl)-4-oxo-3,4-dihydroquinazolin-8-yl)ethyl)amino)-N-(methylsulfonyl) picolinamide], the IC50 was no less than 1000 nM in assay [1], 250 to 500 nM in assay [2], less than 250 nM in assay [3] and 1 to 5 µM in assay [4].
The matching figures for `Cc1cc([C@@H](C)Nc2ccc(Cl)nc2C(=O)NS(C)(=O)=O)c2nc(N3CC4(COC4)C3)n(C)c(=O)c2c1` [Compound 46, (R)-6-chloro-3-((1-(3,6-dimethyl-4-oxo-2-(2-oxa-6-azaspiro[3.3]heptan-6-yl)-3,4-dihydroquinazolin-8-yl)ethyl)amino)-N-(methylsulfonyl) picolinamide]: no less than 1000 nM, no less than 1000 nM, 500 to 1000 nM and 1 to 5 µM.
On to `Cc1cc([C@H](C)Nc2ccccc2S(=O)(=O)NC(=O)C(F)F)c2nc(N3Cc4ccc(F)cc4C3)n(C)c(=O)c2c1` (single isomer, unassigned) [Compound 103, 2,2-difluoro-N-((2-((1-(2-(5-fluoroisoindolin-2-yl)-3,6-dimethyl-4-oxo-3,4-dihydroquinazolin-8-yl)ethyl)amino)phenyl)sulfonyl)acetamide], for which the IC50 in assay [1] is no less than 1000 nM; in assay [2], no less than 1000 nM; in assay [3] it was 1000 to 5000 nM; in assay [4], no less than 5 µM.
With `Cc1cc([C@@H](C)Nc2ccc(Cl)nc2C(=O)NS(C)(=O)=O)c2nc(N3CCC(F)(F)C[C@H]3C)n(C)c(=O)c2c1` (single isomer, unassigned) [Compound 41, 6-chloro-3-(((R)-1-(2-((R*)-4,4-difluoro-2-methylpiperidin-1-yl)-3,6-dimethyl-4-oxo-3,4-dihydroquinazolin-8-yl)ethyl)amino)-N-(methylsulfonyl) picolinamide], the IC50 is no less than 1000 nM in assay [1], 500 to 1000 nM in assay [2], 250 to 500 nM in assay [3] and 1 to 5 µM in assay [4].
The matching figures for `C[C@@H](Nc1ccc[nH]c1=O)c1cc(F)cc2c(=O)n(C)c(N3Cc4cnn(C)c4C3)nc12` [Compound 98, (R)-6-fluoro-3-methyl-2-(1-methyl-4,6-dihydropyrrolo[3,4-c]pyrazol-5(1H)-yl)-8-(1-((2-oxo-1,2-dihydropyridin-3-yl)amino)ethyl)quinazolin-4(3H)-one]: no less than 1000 nM, no less than 1000 nM, 1000 to 5000 nM and no less than 5 µM.
For `C[C@@H](Nc1ccc(Cl)nc1C(=O)NS(C)(=O)=O)c1cc(F)cc2c(=O)n(C)c(N3CCc4c(cnn4C)C3)nc12` [Compound 30, (R)-6-chloro-3-((1-(6-fluoro-3-methyl-2-(1-methyl-1,4,6,7-tetrahydro-5H-pyrazolo[4,3-c]pyridin-5-yl)-4-oxo-3,4-dihydroquinazolin-8-yl)ethyl)amino)-N-(methylsulfonyl) picolinamide] the same measures were no less than 1000 nM, 100 to 250 nM, less than 250 nM and 1 to 5 µM.
For `Cc1cc([C@@H](C)Nc2ccc(C)[nH]c2=O)c2nc(N3Cc4ccc(F)cc4C3)n(C)c(=O)c2c1` [Compound 97, (R)-2-(5-fluoroisoindolin-2-yl)-3,6-dimethyl-8-(1-((6-methyl-2-oxo-1,2-dihydropyridin-3-yl)amino)ethyl)quinazolin-4(3H)-one] the same measures were no less than 1000 nM, no less than 1000 nM, 500 to 1000 nM and no less than 5 µM.
